The results in this text go back to patent US11174243B2, “Succinate forms and compositions of Bruton's tyrosine kinase inhibitors” (Sunesis Pharmaceuticals, Inc., priority 2016, dated 2021).

In one data set the test system is CD40 expression. The data set can be described thus: CpG induced CD40 expression (flow cytometry). In kind it is cell-based, human. The note with it: 3.2 μM CpG stimulation, 1 μM. Here is the method:
Methods: Primary CLL B cells were isolated from the whole blood of consented patients by FICOLL density centrifugation and rosette-sep negative selection. Annexin V and propidium iodide flow cytometry was used to measure patient CLL cell viability and 7AAD was used to measure viability in stromal co-culture. CD40 and CD86 expression was evaluated via flow cytometry subsequent to sustained 3.2 μM CpG stimulation. BCR signaling in primary CLL cells was investigated by immunoblot succeeding 1 hour treatment and following 1 hour or 24 hours of incubation with Compound 1 in XLA cell lines. MTS values were read after 24 hours of drug incubation. ITK inhibition was investigated via immunoblot after stimulation with anti-CD3 and anti-CD28 and incubation with Compound 1 for 1 hour. Compound 1 was used at a concentration of 1 μM in preclinical studies unless otherwise noted.

Data set [1] in a line: Phase 1a single-dose study in humans, Stage 1: pharmacokinetics. In kind it is in vivo, human. The settings on record: for Cmax / Vd/F / AUC(0-t) / Tmax / half-life: both sexes, human, plasma; for AUC(0-t): read-out: AUC0-24. Here is the method:
A first-in-human Phase 1a randomized, double-blind, placebo-controlled, single-dose study, was conducted in 3 stages: In Stage 1, four sequential cohorts of 8 subjects each were randomly assigned to receive progressively higher single oral administrations of Compound 2 at doses of 50, 100, 200, and 300 mg (n=6 per cohort; 3 males and 3 females) or placebo (n=2 per cohort; 1 male and 1 female).
The primary endpoint of safety was assessed by monitoring adverse events (AEs), laboratory abnormalities, and cardiac findings (ECG). Secondary endpoints included evaluation of the PK parameters of area under the plasma concentration-time curve (AUC), maximum plasma concentration (Cmax), time of maximum concentration (Tmax), apparent volume of distribution (Vd/F), terminal elimination half-life (t1/2), terminal elimination rate constant (λz), and apparent clearance (Cl/F) as well as the PD parameter of BTK inhibition in whole blood.
Compound 2 is a succinate salt. Plasma concentrations of the free base (Compound 1) were measured and used for estimation of PK parameters and elaboration of concentration/PD relationships.

Another data set deals with T1, BMX (Homo sapiens, UniProt P51813).
T1 sequence (P51813 1-675): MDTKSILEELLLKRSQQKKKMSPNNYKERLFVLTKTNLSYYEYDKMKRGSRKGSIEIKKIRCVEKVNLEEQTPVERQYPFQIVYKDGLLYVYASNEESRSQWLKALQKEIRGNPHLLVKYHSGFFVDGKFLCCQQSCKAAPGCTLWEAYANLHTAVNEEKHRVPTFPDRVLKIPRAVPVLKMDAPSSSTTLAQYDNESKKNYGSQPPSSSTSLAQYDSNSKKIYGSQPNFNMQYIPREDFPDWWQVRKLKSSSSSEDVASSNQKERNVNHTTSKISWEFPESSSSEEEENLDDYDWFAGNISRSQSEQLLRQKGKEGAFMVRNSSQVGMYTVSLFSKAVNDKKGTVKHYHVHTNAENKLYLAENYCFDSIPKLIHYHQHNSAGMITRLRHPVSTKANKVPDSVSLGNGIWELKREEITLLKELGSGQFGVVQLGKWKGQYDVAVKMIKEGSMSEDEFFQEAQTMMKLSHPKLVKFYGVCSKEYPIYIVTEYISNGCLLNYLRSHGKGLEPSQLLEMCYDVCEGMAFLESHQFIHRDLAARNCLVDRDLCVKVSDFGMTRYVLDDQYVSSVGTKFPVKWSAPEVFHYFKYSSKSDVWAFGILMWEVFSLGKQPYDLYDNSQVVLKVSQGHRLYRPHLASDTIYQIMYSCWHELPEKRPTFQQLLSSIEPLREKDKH
The data set can be described thus: Kinase selectivity, BMX (Kd).

A further data set has as its target T2, TEC (Homo sapiens, UniProt P42680).
T2 sequence (P42680 1-631): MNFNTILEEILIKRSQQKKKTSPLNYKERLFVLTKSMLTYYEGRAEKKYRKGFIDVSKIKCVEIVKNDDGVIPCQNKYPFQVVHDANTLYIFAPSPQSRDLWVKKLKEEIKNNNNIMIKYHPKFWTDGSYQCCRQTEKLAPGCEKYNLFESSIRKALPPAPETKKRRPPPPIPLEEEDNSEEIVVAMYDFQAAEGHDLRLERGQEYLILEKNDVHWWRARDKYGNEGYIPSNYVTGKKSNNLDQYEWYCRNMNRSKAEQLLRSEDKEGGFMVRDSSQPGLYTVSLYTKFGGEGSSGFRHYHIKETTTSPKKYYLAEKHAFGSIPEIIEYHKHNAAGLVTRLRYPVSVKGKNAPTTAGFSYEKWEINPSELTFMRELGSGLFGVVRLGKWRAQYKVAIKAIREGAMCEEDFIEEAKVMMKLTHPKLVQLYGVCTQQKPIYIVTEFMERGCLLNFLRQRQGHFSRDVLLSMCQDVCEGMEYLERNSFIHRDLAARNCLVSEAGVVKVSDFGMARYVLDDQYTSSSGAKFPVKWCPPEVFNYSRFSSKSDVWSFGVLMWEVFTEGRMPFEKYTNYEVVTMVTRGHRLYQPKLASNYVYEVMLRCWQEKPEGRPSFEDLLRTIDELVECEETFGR
In words: In vitro kinase assay, TEC.

A short description of a further data set: Single-dose PK in monkey. The settings on record: male, cynomolgus monkey, plasma. In kind it is in vivo. Here is the method: A series of single-dose PK studies were conducted in rat, dog, and monkey to investigate the plasma PK of Compound 2 following single oral and single intravenous (IV) administration of Compound 2.
The PK of Compound 2 was studied in the male cynomolgus monkey (n=3) following single IV administration of Compound 2 at 1 mg/kg and single oral administration at 5 mg/kg (DRN105-0042). Following each administration, serial blood samples were collected at 0.08, 0.25, 0.5, 1, 2, 4, 7, 16, and 24 hours postdose.

Where [2] appears, read: oral, Cohort 1 (50 mg), mean (SD).
[3] abbreviates: oral, Cohort 2 (100 mg), mean (SD).
[4] abbreviates: oral, Cohort 3 (200 mg), mean (SD).
[5] abbreviates: oral, Cohort 4 (300 mg), mean (SD).
[6] abbreviates: 1 mg/kg, IV, dose 1, 70% PEG400/H2O, free base measured.
[7] abbreviates: 5 mg/kg, PO, dose 5, 0.1% CMC/0.2% Tween, free base measured.

Like-named read-outs stand apart in the source and are kept apart here.

The term Cmax denotes the maximum level reached in the sampled fluid or tissue. In general, Vd/F refers to the apparent distribution volume after extravascular dosing. The Tmax is the time from dosing to the highest level. What is called Kd is the constant that tells how readily two partners part at equilibrium. In general, IC50 refers to the concentration that gives 50% inhibition. In the case of `NC(=O)[C@H]1CCN(c2ncnc(N)c2F)C[C@@H]1N1CCC[C@@H](Nc2cc(Cl)cc(C(F)(F)F)c2)C1=O` [Compound 1, (3R,3′R,4′S)-1′-(6-amino-5-fluoropyrimidin-4-yl)-3-((3-chloro-5-(trifluoromethyl)phenyl)amino)-2-oxo-[1,3′-bipiperidine]-4′-carboxamide], in the data set with CD40 expression, the “decrease of CpG induced CD40 expression” value is 8.7%. Moreover, the t1/2 in data set [1] (50 mg (single dose), after dosing with Compound 2, mean) came to 8.14 h. Besides, the “dose proportionality of total exposure (AUC and Cmax)” value in data set [1] (50-300 mg single oral dose) is listed as “increased approximately proportionally with dose”. The CL/F in data set [1] (Cohort 1 (50 mg), mean (SD)) is on record as 6139 (1250) mL/hr; in data set [1] (Cohort 2 (100 mg), mean (SD)), 7162 (2900) mL/hr; in data set [1] (Cohort 3 (200 mg), mean (SD)), 7886 (3724) mL/hr; in data set [1] (Cohort 4 (300 mg), mean (SD)), 7615 (1595) mL/hr. Further, the highest concentration (Cmax) in data set [1] (oral, 50 mg (single dose), after dosing with Compound 2, mean) worked out at 1.91 µg/mL; in data set [1] (oral, Cohort 2 (100 mg), mean (SD), N 6) it was 3.4 µg/mL; in data set [1] (oral, Cohort 3 (200 mg), mean (SD), N 6) it was 5.96 µg/mL; in data set [1] (oral, Cohort 4 (300 mg), mean (SD), N 6) it was 6.79 µg/mL; in data set [1] (Cohort 1 (50 mg Compound 2, single oral), mean (SD), N 6), 1.91 µg/mL. Further, the Vd/F came out at 69.6 L in data set [1] (setting [2]), 72.9 L in data set [1] (setting [3]), 118 L in data set [1] (setting [4]) and 177 L in data set [1] (setting [5]). The AUC(0-t) in data set [1] (setting [2]) turned out to be 7.83 µg·h/mL; in data set [1] (setting [3]) it was 14.5 µg·h/mL; in data set [1] (setting [4]) it was 29.9 µg·h/mL; in data set [1] (setting [5]) it was 35.4 µg·h/mL. Moreover, the Tmax is 1.17 h in data set [1] (oral, Cohort 1 (50 mg), mean (SD), read-out: Tmax); 1.25 h in data set [1] (oral, Cohort 2 (100 mg), mean (SD), read-out: Tmax); 1 h in data set [1] (oral, Cohort 3 (200 mg), mean (SD), read-out: Tmax); 1.5 h in data set [1] (oral, Cohort 4 (300 mg), mean (SD), read-out: Tmax); 1 h in data set [1] (all dose cohorts, oral, range: 0.5-3.0, read-out: median Tmax). Also, the half-life in data set [1] (oral, Cohort 1 (50 mg), mean (SD), read-out: t1/2 (converted)) was 8.14 h; in data set [1] (oral, Cohort 2 (100 mg), mean (SD), read-out: t1/2 (converted)), 7.43 h; in data set [1] (oral, Cohort 3 (200 mg), mean (SD), read-out: t1/2 (converted)) it was 10.5 h; in data set [1] (oral, Cohort 4 (300 mg), mean (SD), read-out: t1/2 (converted)), 17 h; in data set [1] (50-300 mg single oral dose, read-out: Mean t1/2 values across all dose cohorts) it was 7.43 to 17 h. The molecule further came in with a dissociation constant Kd at BMX of no less than 0.2 µM. Half-maximal inhibition at TEC (IC50) required 0.019 µM.

By AUC(0-inf) is commonly meant the area under the concentration-time curve extrapolated to infinity. In general, bioavailability refers to dose-corrected exposure relative to a reference, in per cent. In the case of `NC(=O)[C@H]1CCN(c2ncnc(N)c2F)C[C@@H]1N1CCC[C@@H](Nc2cc(Cl)cc(C(F)(F)F)c2)C1=O` [Compound 2], in the data set “Single-dose PK in monkey” (setting [6]), the AUC(0-inf) was determined as 1.92 µg·h/mL, the C0 turned out to be 1.6 µg/mL and the half-life is 1.9 h. In addition, in the data set “Single-dose PK in monkey” (setting [7]), the AUC(0-inf) is 3.22 µg·h/mL, the Cmax came to 1.4 µg/mL and the Tmax came to 1.5 h. Besides, the bioavailability in “Single-dose PK in monkey” (5 mg/kg, PO, dose 5, 0.1% CMC/0.2% Tween, read-out: % F (oral bioavailability)) was determined as 33%.
